The text below walks through data of US20050118099A1, “Thiol-mediated drug attachment to targeting peptides” (priority 2003, published 2005).

One data set concerns IMR-32 cells. The experiment in a line: Tumor growth inhibition in IMR-32 mouse xenograft model. It counts as in vivo. Particulars: AE at 75% of the MTD, multiple dose regimen. On the procedure: (§1) FIGS. 3A-3B are line graphs depicting tumor growth inhibition in an IMR-32 mouse xenograft model following administration of AE (◯), 1×CP1-FKMMAE (□), or 3×CP1-FKMMAE (⋄). The control sample depicts uninhibited tumor growth (X). Arrows indicate the times of administration, as described in Example 5.
(§2) The tumoricidal effects of CP1-FKMMAE were evaluated in a mouse xenograft model. Tumors were established in nude mice by subcutaneous injection of IMR-32 cells. A multiple dose regimen was evaluated based on prior studies using AE, which determined a MTD following four administrations of 0.4 mg/kg. Due to limited availability, AE was used at 75% of the MTD. CP1-FKMMAE was administered at 1× and 3× molar equivalents of AE according to the same dosing schedule. Tumor volume, animal weight, and serum growth hormone levels were assessed for each treatment group.

The conditions of data set [1]: following four administrations; prior studies; cited from earlier work.
Data set [2] is described as follows: Animal weight in IMR-32 mouse xenograft model. Type of data set: in vivo. The settings on record: AE at 75% of the MTD. On the procedure:
as §1, §2

The next data set concerns growth hormone. The data set can be described thus: Serum growth hormone levels (ELISA) in IMR-32 mouse xenograft model. Type of data set: in vivo. Particulars: AE at 75% of the MTD, potential toxicity to the pituitary gland. On the procedure: FIG. 4 is a line graph depicting growth hormone levels in an IMR-32 mouse xenograft model following administration of AE (◯), 1×CP1-FKMMAE (□), or 3×CP1-FKMMAE (⋄). The control sample depicts growth hormone levels in the absence of treatment (X). Arrows indicate the times of administration, as described in Example 5. Serum growth hormone levels were determined by ELISA to assess potential toxicity to the pituitary gland.
as §2
(ELISA stands for enzyme-linked immunosorbent assay.)

Data set [3] deals with human somatostatin receptor SSTR2 of IMR-32 human neuroblastoma cells (human) (UniProt P30874). The data set can be described thus: uptake of applied cpm by SSTR+ human cancer cells, 20-24 h at 37 C, gamma counting.
For data set [4] the target is unchanged. The experiment in a line: uptake of applied cpm by SSTR+ human cancer cells; competitor somatostatin at 1000X molar excess.
The target is the same in data set [5]. The experiment in a line: competition with Indium-111-octreotide on IMR-32 membrane extracts, filter assay, gamma counting.

Sequence of UniProt P30874 (P30874 whole entry): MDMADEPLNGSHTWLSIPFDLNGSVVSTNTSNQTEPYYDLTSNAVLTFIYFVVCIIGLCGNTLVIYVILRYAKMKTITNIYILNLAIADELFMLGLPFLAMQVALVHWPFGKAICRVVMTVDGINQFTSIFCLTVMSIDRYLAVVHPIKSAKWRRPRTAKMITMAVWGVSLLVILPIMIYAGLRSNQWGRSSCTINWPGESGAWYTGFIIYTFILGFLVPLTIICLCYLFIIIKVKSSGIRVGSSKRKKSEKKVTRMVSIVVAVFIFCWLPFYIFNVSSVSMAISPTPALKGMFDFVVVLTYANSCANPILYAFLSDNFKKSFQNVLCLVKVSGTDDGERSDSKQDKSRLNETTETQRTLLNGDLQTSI

Consider `CC[C@H](C)[C@@H]([C@@H](CC(=O)N1CCC[C@H]1[C@H](OC)[C@@H](C)C(=O)N[C@H](C)[C@@H](O)c1ccccc1)OC)N(C)C(=O)[C@@H](NC(=O)[C@H](C(C)C)N(C)C)C(C)C` [AE, Auristatin E], for which the Mean tumor volume entry in the data set on IMR-32 cells is given as “reduction in mean tumor volume”. Besides, in data set [1], the “MTD (maximal tolerable dose)” value was 0.4 mg/kg. For the same compound, the Mean mouse weight result in data set [2] is reported as “slightly increased”. For the same compound, the “Serum growth hormone levels” value in the data set with growth hormone is on record as “relative stability”.

The compound Indium-111-octreotide (peptide) came in with a Percentage (%) Uptake in data set [3] of 4.4%. Besides, the Percentage (%) Uptake in the Presence of 1000X SST in data set [4] was 0.1%.

Compound octreotide (unlabeled) (peptide) returned an IC50 in data set [5] of 3 nM.

A word on the IC50: it is the midpoint of a concentration-inhibition curve. High values mean lower potency, low ones higher potency.
